ChEMBL document CHEMBL1128323, “Antifungal agents. 9. 3-Aryl-4-[alpha-(1H-imidazol-1-yl)arylmethyl]pyrroles: a new class of potent anti-Candida agents” (1995)
In brackets after ≈: the same amount, converted by molar mass.

Legend:
Assay type in all cases: functional
Candida albicans [1] = experiment: Inhibitory activity against the Candida albicans (40 clinical isolates), determined at pH-7.2
Candida [2] = experiment: Percent resistance against all Candida. species (40 clinical isolates) at 256 micro g/mL (pH=7.2), activity is expressed as R%.
Candida albicans [3] = experiment: Inhibitory activity against Candida albicans (40 clinical isolates), determined at pH-7.2
Candida [4] = experiment: Inhibitory activity against Candida. species. (40 clinical isolates), determined at pH-5.8
Candida albicans [5] = experiment: Inhibitory activity against the Candida albicans (40 clinical isolates), determined at pH-5.8
Candida [6] = experiment: Resistance against all Candida. species (40 clinical isolates) at 256 micro g/mL (pH=5.8). Activity is expressed as R%.
Candida [7] = experiment: Inhibitory activity against Candida. species (40 clinical isolates), determined at pH-5.8
Candida albicans [8] = experiment: Percent resistance against Candida albicans (40 clinical isolates) at 256 micro g/mL (pH=5.8), activity is expressed as R%.
Candida [9] = experiment: Inhibitory activity against Candida. species. (40 clinical isolates), determined at pH-7.2
Candida [10] = experiment: 50% inhibitory activity against the Candida. species (40 clinical isolates) was determined at pH-7.2
Candida [11] = experiment: 90% inhibitory activity against Candida. species (40 clinical isolates) determined at pH-7.2
Candida albicans [12] = experiment: 50% inhibitory activity against Candida albicans (40 clinical isolates) determined at pH-7.2; conditions: Candida albicans; read-out: MIC50
Candida albicans [13] = experiment: Inhibitory activity against Candida albicans (40 clinical isolates), determined at pH-5.8
Candida albicans [14] = experiment: Resistance against Candida. albicans (40 clinical isolates) at 256 ug/mL (pH=7.2), activity is expressed as R%.
Candida albicans [15] = experiment: 50% inhibitory activity against Candida albicans (40 clinical isolates) determined at pH-5.8

Row | SMILES | MIC90 (Candida albicans [1]) [µg/mL] | R (Candida [2]) [%] | MIC (Candida albicans [3]) [µg/mL] | MIC (Candida [4]) [µg/mL] | MIC90 (Candida albicans [5]) [µg/mL] | R (Candida [6]) [%] | MIC50 (Candida [7]) [µg/mL] | MIC90 (Candida [7]) [µg/mL] | R (Candida albicans [8]) [%] | MIC (Candida [9]) [µg/mL] | MIC50 (Candida [10]) [µg/mL] | MIC90 (Candida [11]) [µg/mL] | MIC50 (Candida albicans [12]) [µg/mL] | MIC (Candida albicans [13]) [µg/mL] | R (Candida albicans [14]) [%] | MIC50 (Candida albicans [15]) [µg/mL]
1 | O=[N+]([O-])c1ccc(C(c2c[nH]cc2-c2ccc(Cl)cc2Cl)n2ccnc2)cc1 (centres undefined) | 64 (≈ 155 µM) | 30 | 38.5 (≈ 93.2 µM) | 30.2 (≈ 73.1 µM) | 64 (≈ 155 µM) | 0 | 32 (≈ 77.4 µM) | 32 (≈ 77.4 µM) | 0 | > 207 | 256 (≈ 619 µM) | > 256 | 32 (≈ 77.4 µM) | 22.9 (≈ 55.4 µM) | 0 | 16 (≈ 38.7 µM)
2 | Cc1ccc(C(c2c[nH]cc2-c2ccccc2Cl)n2ccnc2)cc1 (centres undefined) | 64 (≈ 184 µM) | 0 | 13.2 (≈ 37.9 µM) | 41.7 (≈ 120 µM) | 64 (≈ 184 µM) | 0 | 32 (≈ 92 µM) | 64 (≈ 184 µM) | 0 | 30.1 (≈ 86.5 µM) | 32 (≈ 92 µM) | 32 (≈ 92 µM) | 4 (≈ 11.5 µM) | 35.4 (≈ 102 µM) | 0 | 32 (≈ 92 µM)
3 | Clc1ccccc1-c1c[nH]cc1C(c1ccc(-n2cccc2)cc1)n1ccnc1 (centres undefined) | 64 (≈ 160 µM) | 0 | 25.3 (≈ 63.4 µM) | 30.2 (≈ 75.7 µM) | 16 (≈ 40.1 µM) | 0 | 32 (≈ 80.2 µM) | 32 (≈ 80.2 µM) | 0 | 24.1 (≈ 60.4 µM) | 16 (≈ 40.1 µM) | 64 (≈ 160 µM) | 8 (≈ 20.1 µM) | 20.5 (≈ 51.4 µM) | 0 | 8 (≈ 20.1 µM)
4 | Clc1ccc(-c2c[nH]cc2C(c2ccc(Cl)c(Cl)c2)n2ccnc2)cc1Cl (centres undefined) | 32 (≈ 73.2 µM) | 50 | 14 (≈ 31.9 µM) | > 328 | 32 (≈ 73.2 µM) | 50 | 256 (≈ 586 µM) | > 256 | 0 | > 309 | > 256 | > 256 | 8 (≈ 18.3 µM) | 9.2 (≈ 21 µM) | 0 | 8 (≈ 18.3 µM)
5 | Clc1ccc(-c2c[nH]cc2C(c2cccc3ccccc23)n2ccnc2)cc1 (centres undefined) | 16 (≈ 41.7 µM) | 0 | 10.1 (≈ 26.3 µM) | 16.6 (≈ 43.2 µM) | 16 (≈ 41.7 µM) | 0 | 8 (≈ 20.8 µM) | 32 (≈ 83.4 µM) | 0 | 29 (≈ 75.5 µM) | 16 (≈ 41.7 µM) | 32 (≈ 83.4 µM) | 1 (≈ 2.6 µM) | 11.2 (≈ 29.2 µM) | 0 | 4 (≈ 10.4 µM)
6 | Clc1ccc(C(c2c[nH]cc2-c2ccc(Cl)c(Cl)c2)n2ccnc2)c(Cl)c1 (centres undefined) | 16 (≈ 36.6 µM) | 0 | 5.8 (≈ 13.3 µM) | 27.7 (≈ 63.4 µM) | 16 (≈ 36.6 µM) | 0 | 32 (≈ 73.2 µM) | 32 (≈ 73.2 µM) | 0 | 38.2 (≈ 87.4 µM) | 32 (≈ 73.2 µM) | 32 (≈ 73.2 µM) | 2 (≈ 4.58 µM) | 5.9 (≈ 13.5 µM) | 0 | 2 (≈ 4.58 µM)
7 | Clc1ccc(-c2c[nH]cc2C(c2ccc(Cl)cc2Cl)n2ccnc2)c(Cl)c1 (centres undefined) | 16 (≈ 36.6 µM) | 0 | 20.6 (≈ 47.1 µM) | 23.4 (≈ 53.5 µM) | 16 (≈ 36.6 µM) | 0 | 32 (≈ 73.2 µM) | 32 (≈ 73.2 µM) | 0 | 101 (≈ 231 µM) | 256 (≈ 586 µM) | 256 (≈ 586 µM) | 8 (≈ 18.3 µM) | 7.4 (≈ 16.9 µM) | 0 | 2 (≈ 4.58 µM)
8 | Clc1ccc(C(c2c[nH]cc2-c2ccccc2Cl)n2ccnc2)cc1Cl (centres undefined) | 32 (≈ 79.5 µM) | 0 | 12.7 (≈ 31.5 µM) | 24.8 (≈ 61.6 µM) | 32 (≈ 79.5 µM) | 0 | 32 (≈ 79.5 µM) | 32 (≈ 79.5 µM) | 0 | 36.2 (≈ 89.9 µM) | 32 (≈ 79.5 µM) | 64 (≈ 159 µM) | 16 (≈ 39.7 µM) | 13.8 (≈ 34.3 µM) | 0 | 8 (≈ 19.9 µM)
9 | Clc1ccc(-c2c[nH]cc2C(c2ccc(Cl)c(Cl)c2)n2ccnc2)c(Cl)c1 (centres undefined) | 32 (≈ 73.2 µM) | 0 | 19.6 (≈ 44.8 µM) | 14.2 (≈ 32.5 µM) | 32 (≈ 73.2 µM) | 0 | 16 (≈ 36.6 µM) | 16 (≈ 36.6 µM) | 0 | 21.3 (≈ 48.7 µM) | 16 (≈ 36.6 µM) | 32 (≈ 73.2 µM) | 16 (≈ 36.6 µM) | 7.2 (≈ 16.5 µM) | 0 | 2 (≈ 4.58 µM)
